Results reported in patent US4835159A, “Ergoline esters useful as serotonin antagonists” (Eli Lilly and Company, priority 1988, dated 1989).
Counter-ions that a name gives are not always drawn. Like-named read-outs stand apart in the source and are kept apart here.

Molecular target: T1, 5HT2 receptors (Rattus norvegicus, UniProt P14842)
T1 construct: external jugular veins and thoracic aortas were dissected free of connective tissue; from tissue; host or cells: isolated external jugular vein of male Wistar rats
Assay: Apparent antagonist dissociation constant (KB) for 5HT2 receptors: serotonin-induced contraction of isolated jugular vein
Set-up: species or system rat (male Wistar)
Excerpt: Male Wistar rats, each weighing from approximately 150 g to about 300 g, were sacrificed and their external jugular veins and thoracic aortas were dissected free of connective tissue, cannulated in situ and placed in a modified Krebs' bicarbonate buffer in a suitable tissue bath. Two L-shaped 30-gauge stainlesssteel hypodermic needles were inserted into each cannula and the dissected vessels gently pushed onto the needles. One needle was attached with thread to a stationary glass rod and the other to the transducer. The modified Krebs' bicarbonate buffer was composed of the following ingredients in millimoles: sodium chloride, 118.2; potassium chloride, 4.6; calcium chloride dihydrate, 1.6; potassium dihydrogenphosphate, 1.2; magnesium sulfate, 1.2; dextrose, 10.0; sodium bicarbonate, 24.8; and water q.s. to 1000 g. The tissue baths were maintained at 37° C. and were aerated with 95% oxygen-5% carbon dioxide. An initial optimum resting force of 1 g and 4 g was applied to the jugular vein and aorta, respectively. Isometric contractions were recorded as changes in grams of force on a Beckman Dynograph with Statham UC-3 transducers and a microscale accessory attachment. Tissues were allowed to equilibrate 1 to 2 hours before exposure to the test compounds. Control responses to serotonin in the jugular vein and to norepinephrine in the aorta were obtained. The vessels were then incubated with appropriate concentrations of the test compound for one hour. Responses to serotonin or to norepinephrine were then repeated in the presence of the antagonist. Contraction to serotonin was evaluated in the jugular vein since this tissue is known to produce marked responses to serotonin in the absence of alpha receptors. See Cohen and Wiley, J. Pharm. Exp. Ther., 205, 400 (1978). Alpha receptor antagonist activity was evaluated in the aorta.
Apparent antagonist dissociation constants were determined for each concentration of antagonist according to the following equation: […]

T1 sequence (P14842 whole entry): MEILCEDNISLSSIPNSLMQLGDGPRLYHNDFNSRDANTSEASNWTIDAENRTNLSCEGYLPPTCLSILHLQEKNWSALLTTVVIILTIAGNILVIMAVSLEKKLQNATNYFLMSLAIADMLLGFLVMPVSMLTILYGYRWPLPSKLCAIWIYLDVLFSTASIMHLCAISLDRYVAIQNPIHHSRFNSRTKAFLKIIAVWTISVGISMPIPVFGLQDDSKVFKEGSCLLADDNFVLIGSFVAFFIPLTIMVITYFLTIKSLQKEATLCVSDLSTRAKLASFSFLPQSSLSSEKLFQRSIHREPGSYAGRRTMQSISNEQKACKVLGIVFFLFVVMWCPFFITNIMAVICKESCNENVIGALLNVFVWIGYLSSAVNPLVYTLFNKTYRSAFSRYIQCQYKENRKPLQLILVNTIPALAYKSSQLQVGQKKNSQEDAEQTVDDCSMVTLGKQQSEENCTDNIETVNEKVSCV

| SMILES | Kb [nM] | Kb (rat jugular vein, contraction to serotonin, 1 hour incubation with test compound, 37° C., average of the number of trials, read-out: log KB ± standard error (-log KB, serotonin receptor activity) (converted)) [nM] |
| --- | --- | --- |
| CC(C)n1cc2c3c(cccc31)[C@H]1C[C@@H](C(=O)OC3CC4CC(O)CC4C3)CN(C)[C@@H]1C2 (stereo partly drawn) [Example 3, Octahydro-5-hydroxy-2-pentalenyl 1-isopropyl-9,10-dihydrolysergate hemihydrate] | 0.631 |  |
| CC(C)n1cc2c3c(cccc31)[C@H]1C[C@@H](C(=O)OC3CCC4CCCCC4C3)CN(C)[C@@H]1C2 (stereo partly drawn) [Example 2, Decahydro-2-naphthalenyl 1-isopropyl-9,10-dihydrolysergate maleate] | < 100 |  |
| CC(C)n1cc2c3c(cccc31)[C@H]1C[C@@H](C(=O)OC3CCCC4C(O)CCCC34)CN(C)[C@@H]1C2 (stereo partly drawn) [Example 1, Decahydro-t-hydroxy-1-naphthalenyl 1-isopropyl-9,10-dihydrolysergate maleate] |  | 0.224 |
